According to ChEMBL document CHEMBL5390230, “Imidazole-based sphingosine-1-phosphate transporter Spns2 inhibitors” (Bioorg Med Chem Lett, 2023):

Legend:
Format in all cases: cell-based
[1] = biological target: T1, Sphingosine-1-phosphate transporter SPNS2 (Homo sapiens) (UniProt Q8IVW8); assay: Inhibition of Spns2 in human HeLa cells assessed as decrease in extracellular S1P level at 2 uM by LC/MS analysis relative to control
T1 sequence (whole entry): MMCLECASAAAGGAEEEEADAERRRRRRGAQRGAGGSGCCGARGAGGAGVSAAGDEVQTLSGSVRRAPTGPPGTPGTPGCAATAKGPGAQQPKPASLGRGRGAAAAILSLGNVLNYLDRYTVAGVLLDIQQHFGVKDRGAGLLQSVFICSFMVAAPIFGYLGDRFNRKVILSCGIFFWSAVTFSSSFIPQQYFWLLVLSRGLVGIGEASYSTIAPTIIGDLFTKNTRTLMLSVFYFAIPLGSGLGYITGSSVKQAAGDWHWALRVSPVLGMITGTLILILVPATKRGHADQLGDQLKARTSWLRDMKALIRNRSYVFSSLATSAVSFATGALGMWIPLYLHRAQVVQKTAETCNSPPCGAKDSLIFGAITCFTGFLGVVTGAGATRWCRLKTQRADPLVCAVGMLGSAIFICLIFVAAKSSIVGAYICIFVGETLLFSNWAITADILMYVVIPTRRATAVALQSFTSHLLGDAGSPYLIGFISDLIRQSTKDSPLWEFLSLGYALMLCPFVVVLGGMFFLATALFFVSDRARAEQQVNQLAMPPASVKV

[2] = biological target: T2, Sphingosine-1-phosphate transporter SPNS2 (Homo sapiens, UniProt Q8IVW8); assay: Inhibition of Spns2 in human HeLa cells decrease in extracellular S1P level by LC/MS method
T2 sequence (Q8IVW8 whole entry): T1 sequence (whole entry)

[3] = biological target: T1, Sphingosine-1-phosphate transporter SPNS2 (Homo sapiens); assay: Inhibition of Spns2 in human HeLa cells assessed as decrease in extracellular S1P level at 3 uM by LC/MS analysis relative to control

Compound	inhibition [1] [%]	IC50 [2] [nM]	inhibition [3] [%]
CCCCCCCCCCc1ccc(-c2cn(CCC)c(CCCN)n2)cc1	7		
CCCCCCCCCCc1ccc(-c2cn(CC(=O)OC(C)C)c(CCCN)n2)cc1	27		
CCCCCCCCCCc1nc(-c2ccc(-n3cc[n+](C)c3)cc2)no1			41
CCCCCCCc1nc(-c2ccc(-n3cc[n+](C)c3)cc2)no1			0
CCCCCCCCc1nc(-c2ccc(-n3cc[n+](C)c3)cc2)no1			26
CCCCCCCCCCc1ccc(-c2noc(CCCN)n2)cc1	67		
CCCCCCCCCCc1ccc(-c2cn(C)c(CCCN)n2)cc1	51	2820	
CCCCCCCCCCCc1nc(-c2ccc(-n3ccnc3)cc2)no1			25
CCCCCCCCCc1nc(-c2ccc(-n3ccnc3)cc2)no1			28

Other lines, results leading:

inhibition [1] [%]	IC50 [2] [nM]	inhibition [3] [%]	Compound
51	1400		CCCCCCCCCCc1ccc(-c2cn(CC)c(CCCN)n2)cc1
		33	CCCCCCCCCCc1nc(-c2ccc(-n3ccnc3)cc2)no1
		47	CCCCCCCCCc1nc(-c2ccc(-n3cc[n+](C)c3)cc2)no1
		22	CCCCCCCCc1nc(-c2ccc(-n3ccnc3)cc2)no1
10			CCCCCCCCCCc1ccc(-c2cn(CC(N)=O)c(CCCN)n2)cc1
		3	CCCCCCCCCCCc1nc(-c2ccc(-n3cc[n+](C)c3)cc2)no1
		12	CCCCCCCc1nc(-c2ccc(-n3ccnc3)cc2)no1
11			CCCCCCCCCCc1ccc(-c2cn(CCCOC)c(CCCN)n2)cc1
